Reference: patent publication US10087229B2, “Peptide compound” (TAKEDA PHARMACEUTICAL COMPANY LIMITED, priority 2013, dated 2018)
Square brackets hold non-standard residues; d marks the D form. Peptide text beside a SMILES is read from it. * marks the point of attachment. αMeY = C[C@](N)(Cc1ccc(O)cc1)C(=O)O; αMeF = C[C@](N)(Cc1ccccc1)C(=O)O; Cha = N[C@@H](CC1CCCCC1)C(=O)O; Aib = CC(C)(N)C(=O)O; Bz = O=C(c1ccccc1)*

Test system: male C57BL/6J mouse
Experiment: 2-days continuous subcutaneous administration test (feeding suppressive activity)
Assay type: in vivo
Details: 10 nmol/kg/day, subcutaneous Alzet pump, 2-days cumulative food consumption, control (solvent alone) = 0%
Experimental: 2-Days Continuous Subcutaneous Administration Test
The feeding suppressive activity of a test compound was examined by the method described below.
The test compound was dissolved in a solvent (50% DMSO) so that sustained release would occur at 10 nmol/kg/day, and the solution was filled in the Alzet Pump (DURECT Corporation, model: 1003D). The pump thus filled with the solution to be administered was immersed in physiological saline for priming, and then used. The pump was embedded by the following method. Each male C57BL/6J mouse at 8-9 weeks of age (20-26° C., allowed to take food and water ad libitum; 12-hour bright-12-hour dark cycle) was anesthetized; the skin in the upper back thereof was incised, and the above-mentioned pump was embedded subcutaneously; the incision was sutured. After weighing, this mouse was returned to the rearing cage (reared alone), and given previously weighed food; food consumption as of 2 days after the start of administration was measured. The food consumption was calculated by subtracting the amount of remaining food from the weight of the food given on the day of the start of administration. When the food consumption of a control group receiving administration of the solvent alone was regarded as a suppression rate of 0%, the feeding suppressive activity of each test compound was evaluated on the basis of 2-days cumulative food consumption after the start of administration. The food intake suppression rate (%) of the test compound was defined as (Food consumption of the control group−Food consumption of the test compound-administered group)/Food consumption of the control group×100.

SMILES: CC[C@H](C)[C@H](NC(=O)[C@H](C)NC(=O)[C@H](Cc1ccc(O)cc1)NC(=O)[C@H](CC(=O)O)NC(=O)[C@H](CO)NC(=O)[C@@H](NC(=O)[C@](C)(Cc1ccccc1)NC(=O)[C@@H](NC(=O)CNC(=O)[C@H](CCC(=O)O)NC(=O)C(C)(C)NC(=O)[C@@H](N)Cc1ccc(O)cc1)[C@@H](C)O)[C@@H](C)O)C(=O)NC(C)(C)C(=O)N[C@@H](CC(C)C)C(=O)N[C@@H](CC(=O)O)C(=O)N[C@@H](CCCCN)C(=O)N[C@@H](CCC(N)=O)C(=O)N[C@@H](C)C(=O)N[C@@H](CCC(N)=O)C(=O)N[C@@H](C)C(=O)N[C@@H](CCC(=O)O)C(=O)N[C@@H](Cc1ccccc1)C(=O)N[C@H](C(=O)N[C@@H](CCCCN)C(=O)N[C@@H](Cc1c[nH]c2ccccc12)C(=O)N[C@@H](CC(C)C)C(=O)N[C@@H](CC(C)C)C(=O)N[C@@H](CCCCN)C(=O)NCC(=O)NCC(=O)N1CCC[C@H]1C(=O)N[C@@H](CO)C(=O)N[C@@H](CO)C(=O)NCC(=O)N[C@@H](C)C(=O)N1CCC[C@H]1C(=O)N1CCC[C@H]1C(=O)N1CCC[C@H]1C(=O)N[C@@H](CO)C(N)=O)C(C)C [Example 5] (H-Y[Aib]EGT[αMeF]TSDYAI[Aib]LDKQAQAEFVKWLLKGGPSSGAPPPS-NH2)
- Food intake suppression (%): 60.99%

SMILES: CC[C@H](C)[C@H](NC(=O)C(C)(C)NC(=O)[C@H](Cc1ccc(O)cc1)NC(=O)[C@H](CC(=O)O)NC(=O)[C@H](CO)NC(=O)[C@@H](NC(=O)[C@](C)(Cc1ccccc1)NC(=O)[C@@H](NC(=O)CNC(=O)[C@H](CCC(=O)O)NC(=O)C(C)(C)NC(=O)[C@H](Cc1ccc(O)cc1)NC(=O)c1ccccc1)[C@@H](C)O)[C@@H](C)O)C(=O)NC(C)(C)C(=O)N[C@@H](CC(C)C)C(=O)N[C@@H](CC(=O)O)C(=O)N[C@@H](CCCCN)C(=O)N[C@@H](CCC(N)=O)C(=O)N[C@@H](C)C(=O)N[C@@H](CCC(N)=O)C(=O)N[C@@H](C)C(=O)N[C@@H](CCC(=O)O)C(=O)N[C@@H](Cc1ccccc1)C(=O)N[C@H](C(=O)N[C@@H](CCCCN)C(=O)N[C@@H](Cc1c[nH]c2ccccc12)C(=O)N[C@@H](CC(C)C)C(=O)N[C@@H](CC(C)C)C(=O)N[C@@H](CCCCN)C(=O)NCC(=O)NCC(=O)N1CCC[C@H]1C(=O)N[C@@H](CO)C(=O)N[C@@H](CO)C(=O)NCC(=O)N[C@@H](C)C(=O)N1CCC[C@H]1C(=O)N1CCC[C@H]1C(=O)N1CCC[C@H]1C(=O)N[C@@H](CO)C(=O)N[C@@H](CCCCN)C(N)=O)C(C)C [Example 19] (Bz-Y[Aib]EGT[αMeF]TSDY[Aib]I[Aib]LDKQAQAEFVKWLLKGGPSSGAPPPSK-NH2)
- Food intake suppression (%): 34.79%

SMILES: CC[C@H](C)[C@H](NC(=O)[C@H](C)NC(=O)[C@H](Cc1ccc(O)cc1)NC(=O)[C@H](CC(=O)O)NC(=O)[C@H](CO)NC(=O)[C@@H](NC(=O)[C@](C)(Cc1ccccc1)NC(=O)[C@@H](NC(=O)CNC(=O)[C@H](CCC(=O)O)NC(=O)C(C)(C)NC(=O)[C@@H](N)Cc1ccc(O)cc1)[C@@H](C)O)[C@@H](C)O)C(=O)NC(C)(C)C(=O)N[C@@H](CC(C)C)C(=O)N[C@@H](CC(=O)O)C(=O)N[C@@H](CCCCN)C(=O)N[C@@H](CCC(N)=O)C(=O)N[C@@H](C)C(=O)N[C@@H](CCC(N)=O)C(=O)N[C@@H](C)C(=O)N[C@@H](CCC(=O)O)C(=O)N[C@@H](Cc1ccccc1)C(=O)N[C@H](C(=O)N[C@@H](CCCCN)C(=O)N[C@@H](Cc1c[nH]c2ccccc12)C(=O)N[C@@H](CC(C)C)C(=O)N[C@@H](CC(C)C)C(=O)N[C@@H](CCCCN)C(=O)NCC(=O)NCC(=O)N1CCC[C@H]1C(=O)N[C@@H](CO)C(=O)N[C@@H](CO)C(=O)NCC(=O)N[C@@H](C)C(=O)N1CCC[C@H]1C(=O)N1CCC[C@H]1C(=O)N1CCC[C@H]1C(=O)N[C@@H](CO)C(=O)N[C@@H](CCCCN)C(N)=O)C(C)C [Example 1] (H-Y[Aib]EGT[αMeF]TSDYAI[Aib]LDKQAQAEFVKWLLKGGPSSGAPPPSK-NH2)
- Food intake suppression (%): 42.68%

SMILES: CC[C@H](C)[C@H](NC(=O)C(C)(C)NC(=O)[C@H](Cc1ccc(O)cc1)NC(=O)[C@H](CC(=O)O)NC(=O)[C@H](CO)NC(=O)[C@@H](NC(=O)[C@](C)(Cc1ccccc1)NC(=O)[C@@H](NC(=O)CNC(=O)[C@H](CCC(=O)O)NC(=O)C(C)(C)NC(=O)[C@@H](N)Cc1ccc(O)cc1)[C@@H](C)O)[C@@H](C)O)C(=O)N[C@@](C)(Cc1ccc(O)cc1)C(=O)N[C@@H](CC(C)C)C(=O)N[C@@H](CC(=O)O)C(=O)N[C@@H](CCCCN)C(=O)N[C@@H](CCC(N)=O)C(=O)N[C@@H](C)C(=O)N[C@@H](CCC(N)=O)C(=O)N[C@@H](C)C(=O)N[C@@H](CCC(=O)O)C(=O)N[C@@H](Cc1ccccc1)C(=O)N[C@H](C(=O)N[C@@H](CCCCN)C(=O)N[C@@H](Cc1c[nH]c2ccccc12)C(=O)N[C@@H](CC(C)C)C(=O)N[C@@H](CC(C)C)C(=O)N[C@@H](CCCCN)C(=O)NCC(=O)NCC(=O)N1CCC[C@H]1C(=O)N[C@@H](CO)C(=O)N[C@@H](CO)C(=O)NCC(=O)N[C@@H](C)C(=O)N1CCC[C@H]1C(=O)N1CCC[C@H]1C(=O)N1CCC[C@H]1C(=O)N[C@@H](CO)C(=O)N[C@@H](CCCCN)C(N)=O)C(C)C [Example 17] (H-Y[Aib]EGT[αMeF]TSDY[Aib]I[αMeY]LDKQAQAEFVKWLLKGGPSSGAPPPSK-NH2)
- Food intake suppression (%): 55.42%

SMILES: CC(C)C[C@H](NC(=O)[C@H](CC(C)C)NC(=O)[C@H](Cc1c[nH]c2ccccc12)NC(=O)[C@H](CCCCN)NC(=O)[C@@H](NC(=O)[C@H](Cc1ccccc1)NC(=O)[C@H](CCC(=O)O)NC(=O)[C@H](C)NC(=O)[C@H](CCC(N)=O)NC(=O)[C@H](C)NC(=O)[C@H](CCC(N)=O)NC(=O)[C@H](CCCCN)NC(=O)[C@H](CC(=O)O)NC(=O)[C@H](CC(C)C)NC(=O)C(C)(C)NC(=O)[C@H](CCCCN)NC(=O)C(C)(C)NC(=O)[C@H](Cc1ccc(O)cc1)NC(=O)[C@H](CC(=O)O)NC(=O)[C@H](CO)NC(=O)[C@@H](NC(=O)[C@](C)(Cc1ccccc1)NC(=O)[C@@H](NC(=O)CNC(=O)[C@H](CCC(=O)O)NC(=O)C(C)(C)NC(=O)[C@@H](N)Cc1ccc(O)cc1)[C@@H](C)O)[C@@H](C)O)C(C)C)C(=O)N[C@@H](CCCCN)C(=O)NCC(=O)NCC(=O)N1CCC[C@H]1C(=O)N[C@@H](CO)C(=O)N[C@@H](CO)C(=O)NCC(=O)N[C@@H](C)C(=O)N1CCC[C@H]1C(=O)N1CCC[C@H]1C(=O)N1CCC[C@H]1C(=O)N[C@@H](CO)C(=O)N[C@@H](CCCCN)C(N)=O [Example 9] (H-Y[Aib]EGT[αMeF]TSDY[Aib]K[Aib]LDKQAQAEFVKWLLKGGPSSGAPPPSK-NH2)
- Food intake suppression (%): 45.23%

SMILES: CC(C)C[C@H](NC(=O)[C@H](CC(C)C)NC(=O)[C@H](Cc1c[nH]c2ccccc12)NC(=O)[C@H](CCCCN)NC(=O)[C@@H](NC(=O)[C@H](Cc1ccccc1)NC(=O)[C@H](CCC(=O)O)NC(=O)[C@H](C)NC(=O)[C@H](CCC(N)=O)NC(=O)[C@H](C)NC(=O)[C@H](CCC(N)=O)NC(=O)[C@H](CCCCN)NC(=O)[C@H](CC(=O)O)NC(=O)[C@H](CC(C)C)NC(=O)[C@H](CC1CCCCC1)NC(=O)[C@H](CCCCN)NC(=O)C(C)(C)NC(=O)[C@H](Cc1ccc(O)cc1)NC(=O)[C@H](CC(=O)O)NC(=O)[C@H](CO)NC(=O)[C@@H](NC(=O)[C@](C)(Cc1ccccc1)NC(=O)[C@@H](NC(=O)CNC(=O)[C@H](CCC(=O)O)NC(=O)C(C)(C)NC(=O)[C@@H](N)Cc1ccc(O)cc1)[C@@H](C)O)[C@@H](C)O)C(C)C)C(=O)N[C@@H](CCCCN)C(=O)NCC(=O)NCC(=O)N1CCC[C@H]1C(=O)N[C@@H](CO)C(=O)N[C@@H](CO)C(=O)NCC(=O)N[C@@H](C)C(=O)N1CCC[C@H]1C(=O)N1CCC[C@H]1C(=O)N1CCC[C@H]1C(=O)N[C@@H](CO)C(=O)N[C@@H](CCCCN)C(N)=O [Example 16] (H-Y[Aib]EGT[αMeF]TSDY[Aib]K[Cha]LDKQAQAEFVKWLLKGGPSSGAPPPSK-NH2)
- Food intake suppression (%): 54.24%

SMILES: CC(C)C[C@H](NC(=O)[C@H](CC(C)C)NC(=O)[C@H](Cc1c[nH]c2ccccc12)NC(=O)[C@H](CCCCN)NC(=O)[C@@H](NC(=O)[C@H](Cc1ccccc1)NC(=O)[C@H](CCC(=O)O)NC(=O)[C@H](C)NC(=O)[C@H](CCC(N)=O)NC(=O)[C@H](C)NC(=O)[C@H](CCC(N)=O)NC(=O)[C@H](CCCCN)NC(=O)[C@H](CC(=O)O)NC(=O)[C@H](CC(C)C)NC(=O)C(C)(C)NC(=O)[C@H](Cc1ccccc1)NC(=O)C(C)(C)NC(=O)[C@H](Cc1ccc(O)cc1)NC(=O)[C@H](CC(=O)O)NC(=O)[C@H](CO)NC(=O)[C@@H](NC(=O)[C@](C)(Cc1ccccc1)NC(=O)[C@@H](NC(=O)CNC(=O)[C@H](CCC(=O)O)NC(=O)C(C)(C)NC(=O)[C@@H](N)Cc1ccc(O)cc1)[C@@H](C)O)[C@@H](C)O)C(C)C)C(=O)N[C@@H](CCCCN)C(=O)NCC(=O)NCC(=O)N1CCC[C@H]1C(=O)N[C@@H](CO)C(=O)N[C@@H](CO)C(=O)NCC(=O)N[C@@H](C)C(=O)N1CCC[C@H]1C(=O)N1CCC[C@H]1C(=O)N1CCC[C@H]1C(=O)N[C@@H](CO)C(=O)N[C@@H](CCCCN)C(N)=O [Example 11] (H-Y[Aib]EGT[αMeF]TSDY[Aib]F[Aib]LDKQAQAEFVKWLLKGGPSSGAPPPSK-NH2)
- Food intake suppression (%): 49.99%
